The target of the assay is T1, LATS1 (Homo sapiens, UniProt O95835).
T1 construct: purchased Thermo Fisher Scientific (Life Technologies) SelectScreen
Description: SelectScreen LanthaScreen. The conditions noted are these: read-out: % displacement. It is filed as binding. Put shortly: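 Percent values come from Thermo SelectScreen profiling of NU5455, combining activity and binding assays. CSF1R was run in Z'LYTE format at Km app ATP, and CAMK1 in Adapta format with ATP listed at 10.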

T1 sequence (O95835 whole entry): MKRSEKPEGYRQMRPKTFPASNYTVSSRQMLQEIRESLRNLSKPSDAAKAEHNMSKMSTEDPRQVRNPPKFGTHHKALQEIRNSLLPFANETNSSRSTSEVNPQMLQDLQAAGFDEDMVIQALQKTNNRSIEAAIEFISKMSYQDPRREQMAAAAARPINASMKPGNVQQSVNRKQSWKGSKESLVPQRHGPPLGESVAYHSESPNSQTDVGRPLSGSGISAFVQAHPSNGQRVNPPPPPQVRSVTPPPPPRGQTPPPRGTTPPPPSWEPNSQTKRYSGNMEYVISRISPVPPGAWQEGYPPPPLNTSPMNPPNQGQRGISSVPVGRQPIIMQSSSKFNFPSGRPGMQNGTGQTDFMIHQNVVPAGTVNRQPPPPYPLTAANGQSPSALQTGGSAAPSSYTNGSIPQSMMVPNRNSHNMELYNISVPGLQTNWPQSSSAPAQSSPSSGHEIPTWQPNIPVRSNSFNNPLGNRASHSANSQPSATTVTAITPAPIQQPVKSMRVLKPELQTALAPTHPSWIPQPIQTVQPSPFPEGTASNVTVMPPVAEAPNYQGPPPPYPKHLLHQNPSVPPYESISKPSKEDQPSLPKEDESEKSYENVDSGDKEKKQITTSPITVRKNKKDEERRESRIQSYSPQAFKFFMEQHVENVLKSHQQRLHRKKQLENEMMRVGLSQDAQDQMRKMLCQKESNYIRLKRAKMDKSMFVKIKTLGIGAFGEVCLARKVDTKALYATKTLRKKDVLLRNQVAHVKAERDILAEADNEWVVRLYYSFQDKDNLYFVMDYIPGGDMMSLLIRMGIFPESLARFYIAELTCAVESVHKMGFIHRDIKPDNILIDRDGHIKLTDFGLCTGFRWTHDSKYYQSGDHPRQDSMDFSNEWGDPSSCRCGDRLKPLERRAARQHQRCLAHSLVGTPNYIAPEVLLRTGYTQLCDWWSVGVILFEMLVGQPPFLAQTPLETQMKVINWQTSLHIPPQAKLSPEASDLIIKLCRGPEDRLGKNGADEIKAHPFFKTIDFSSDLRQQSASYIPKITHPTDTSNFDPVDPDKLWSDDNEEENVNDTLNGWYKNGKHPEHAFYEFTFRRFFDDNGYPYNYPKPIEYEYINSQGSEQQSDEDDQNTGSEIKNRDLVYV

As to `CN(C(=O)CN1CCOCC1)c1ccc2sc3c(-c4cccc5c(=O)cc(N6CC7CCC(C6)O7)oc45)cccc3c2c1` [NU5455], the inhibition at 1 µM is -1.3%.
